Test results taken from patent publication US20200131144A1, “AMINE OR (THIO)AMIDE CONTAINING LXR MODULATORS” (Phenex-FXR GmbH, priority 2017, published 2020).
pEC50: −log10 of the molar value. Read-outs that look alike come from different tables or passages of the source.

How the values were obtained:
LXRβ full length (FL) = target: T1, LXRβ full length (FL) (Homo sapiens, UniProt P55055, INS174Q); test: LXR Gal4 reporter transient transfection assay, mammalian two-hybrid, FL-M2H Gal4β; format: cell-based; conditions: HEK293 cells; inverse agonist unless *
T1 construct: the full length (FL) proteins of LXRα (amino acids 1-447); NP005684; NP009052; expressed in transfected cells; host or cells: HEK293
T1 sequence (P55055 with tags, fused parts or gaps INS174Q): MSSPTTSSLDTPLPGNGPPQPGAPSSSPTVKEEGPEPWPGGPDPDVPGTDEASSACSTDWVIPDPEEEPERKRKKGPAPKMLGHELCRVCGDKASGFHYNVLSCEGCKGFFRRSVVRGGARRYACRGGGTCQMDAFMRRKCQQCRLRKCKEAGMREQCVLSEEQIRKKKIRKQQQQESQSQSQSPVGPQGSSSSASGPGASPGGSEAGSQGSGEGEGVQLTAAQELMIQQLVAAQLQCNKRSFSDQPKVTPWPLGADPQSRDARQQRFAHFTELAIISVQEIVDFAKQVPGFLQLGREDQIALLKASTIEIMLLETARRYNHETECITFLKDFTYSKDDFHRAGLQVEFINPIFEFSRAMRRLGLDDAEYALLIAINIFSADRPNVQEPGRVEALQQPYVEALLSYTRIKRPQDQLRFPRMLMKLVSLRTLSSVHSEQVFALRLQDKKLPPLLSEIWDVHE
How it was run: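 Mammalian two-hybrid read-out: interaction of LXRα or LXRβ (full length or ligand-binding domain, NFkB activation-domain fusions) with GAL4-fused SRC1 or NCoR domains drives GAL4-responsive firefly luciferase in HEK293 cells, normalised by Renilla cotransfection. Compounds given 4 h after transfection, ≤0.2% vehicle, cells lysed after 16 h.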

[1] = Short term HFD mouse model: liver and plasma exposure after multiple oral dosing; format: in vivo, mice (C57BL/6J); conditions: C57BL/6J, HFD mice, 4 h after final dose; for Kp at 4 h: liver/plasma, read-out: liver/plasma ratio, 4 h
Excerpt: Short Term HFD Mouse Model:
For this, C57BL/6J were purchased from Elevage Janvier (Rennes, France) at the age of 8 weeks. After an acclimation period of two weeks, animals were prefed on a high fat diet (HFD) (Ssniff Spezialdiäten GmbH, Germany, Surwit EF D12330 mod, Cat. No. E15771-34), with 60 kcal % from fat plus 1% (w/w) extra cholesterol (Sigma-Aldrich, St. Louis, Mo.) for 5 days. Animals were maintained on this diet during treatment with LXR modulators. The test compounds were formulated in 0.5% hydroxypropylmethylcellulose (HPMC) and administered in three doses (from 1.5 to 20 mg/kg each) by oral gavage according to the following schedule: on day one, animals received treatment in the morning and the evening (ca. 17:00), on day two animals received the final treatment in the morning after a 4 h fast and were sacrificed 4 h thereafter. Animal work was conducted according to the national guidelines for animal care in Germany.
Multiple oral dosing of compounds from the present invention in mice lead to a high liver exposure with a favourable liver to plasma ratio. […] These genes are related to hepatic de-novo lipogenesis. A suppression of these genes will reduce liver fat (liver triglycerides).

[2] = Pharmacokinetics in mice after single oral dosing, blood and liver exposure by LC-MS; format: in vivo, mice (C57/bl6/J); conditions: single oral dose 20 mg/kg; for Kp at 12 h / Kp at 4 h / Kp at 24 h: male, C57/bl6/J, mouse, liver/blood, read-out: liver/blood ratio
How it was run: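 Male C57BL/6J mice fasted ≥12 h, given a single oral dose of 20 mg/kg (n=3 per group). Sacrifice at 4, 12 or 24 h post-dose; liver and blood levels quantified by LC-MS.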

[3] = liver, three oral doses of 20 mg/kg each, read-out: liver exposure, 4 h
[4] = three oral doses of 20 mg/kg each
[5] = plasma, three oral doses of 20 mg/kg each, read-out: plasma exposure, 4 h
[6] = liver, three oral doses of 10 mg/kg each, read-out: liver exposure, 4 h
[7] = three oral doses of 10 mg/kg each
[8] = plasma, three oral doses of 10 mg/kg each, read-out: plasma exposure, 4 h
[9] = liver, three oral doses of 1.5 mg/kg each, read-out: liver exposure, 4 h
[10] = three oral doses of 1.5 mg/kg each
[11] = plasma, three oral doses of 1.5 mg/kg each, read-out: plasma exposure, 4 h

pEC50 (LXRβ full length (FL))	concentration at 4 h [1, 3] [µM]	Kp at 4 h [1, 4]	concentration at 4 h [1, 5] [µM]	concentration at 4 h [1, 6] [µM]	Kp at 4 h [1, 7]	concentration at 4 h [1, 8] [µM]	Compound	other results
> 7.00	14.8	52.5	0.281	–	–	–	Cc1ccc2ccccc2c1C(=O)N(Cc1ccc(C(F)(F)F)o1)Cc1ccc(-c2cccc(C(C)(C)C(=O)O)c2)cc1C#N [27/7]	–
> 7.00	44.3	32.5	1.36	–	–	–	CCc1nc2ccccc2c(C(=O)N(Cc2ccc(-c3cccc(C(C)(C)C(=O)O)c3)cc2)Cc2ccc(C(F)(F)F)o2)c1C [27/43]	Kp at 12 h ([2]; time point 12 h): 49; blood/plasma exposure ([2]; time point 12 h): 0.03 µM; liver exposure ([2]; time point 12 h): 1.3 µM
> 7.00	38.4	36	1.07	–	–	–	CC(C)(C(=O)O)c1cccc(-c2ccc(CN(Cc3ccc(C(F)(F)F)o3)C(=O)c3c4ccccc4cc4ccccc34)cc2)c1 [27/47]	–
> 7.00	8.93	2.5	3.52	–	–	–	Cc1ccc2ccccc2c1CN(Cc1ccc(-c2cccc(C(C)(C)C(=O)O)c2)cc1)Cc1ccc(C(F)(F)F)o1 [Example 24, 2-Methyl-2-(4′-((((2-methylnaphthalen-1-yl)methyl)((5-(trifluoromethyl)furan-2-yl)methyl)amino)methyl)-[1,1′-biphenyl]-3-yl)propanoic acid]	Kp at 4 h ([2]; time point 4 h): 11; Kp at 12 h ([2]; time point 12 h): 5.7; Kp at 24 h ([2]; time point 24 h): 2.9; blood/plasma exposure ([2]; time point 4 h): 0.96 µM; liver exposure ([2]; time point 4 h): 10.3 µM; blood/plasma exposure ([2]; time point 12 h): 0.21 µM; liver exposure ([2]; time point 12 h): 1.2 µM; blood/plasma exposure ([2]; time point 24 h): 0.04 µM; liver exposure ([2]; time point 24 h): 0.13 µM; concentration at 4 h ([1]; liver, three oral doses of 5 mg/kg each, read-out: liver exposure, 4 h): 2.6 µM; Kp at 4 h ([1]; three oral doses of 5 mg/kg each): 2.9; concentration at 4 h ([1]; plasma, three oral doses of 5 mg/kg each, read-out: plasma exposure, 4 h): 0.893 µM
> 7.00	–	–	–	36.5	39.2	0.931	Cc1nc2ccccc2c(C(=O)N(Cc2ccc(-c3cccc(C(C)(C)C(=O)O)c3)cc2)Cc2ccc(C(F)(F)F)o2)c1C [27/79]	–
–	18.2	135	0.134	–	–	–	Cc1ccc2ccccc2c1C(=O)N(Cc1ccc(-c2cccc(S(=O)(=O)CC(=O)O)c2)cc1)Cc1ccc(C(F)(F)F)o1 [Example 9]	Kp at 4 h ([2]; time point 4 h): 72; Kp at 24 h ([2]; time point 24 h): 25; blood/plasma exposure ([2]; time point 4 h): 0.18 µM; liver exposure ([2]; time point 4 h): 12.7 µM; blood/plasma exposure ([2]; time point 24 h): 0.00 µM; liver exposure ([2]; time point 24 h): 0.10 µM
> 7.00	–	–	–	155	73.7	2.1	Cc1nc2cccnc2c(C(=O)N(Cc2ccc(-c3cccc(C(C)(C)C(=O)O)c3)cc2)Cc2ccc(C(F)(F)F)o2)c1C [27/93]	–
> 7.00	–	–	–	37.9	16.4	2.31	Cc1ccc2ccccc2c1C(=O)N(Cc1ccc(-c2cc(F)cc(C3(C(=O)O)CC3)c2)cc1)Cc1ccc(C(F)(F)F)o1 [27/76]	–
> 7.00	13.8	1790	0.008	–	–	–	CCOC(=O)c1ccc(CN(Cc2ccc(-c3cccc(C(C)(C)C(=O)O)c3)cc2)C(=O)c2c(C)ccc3ccccc23)o1 [27/28]	Kp at 4 h ([2]; time point 4 h): 844; blood/plasma exposure ([2]; time point 4 h): 0.05 µM; liver exposure ([2]; time point 4 h): 38.8 µM; concentration at 4 h [1, 9]: 4.3 µM; Kp at 4 h [1, 10]: 600; concentration at 4 h [1, 11]: 0.007 µM
> 7.00	–	–	–	43.2	50.8	0.849	COc1c(C)nc2ccccc2c1C(=O)N(Cc1ccc(-c2cccc(C(C)(C)C(=O)O)c2)cc1)Cc1ccc(C(F)(F)F)o1 [27/81]	–
–	2.82	55.7	0.051	–	–	–	Cc1ccc2ccccc2c1C(=O)N(Cc1ccc(-c2cc(F)c(CO)c(S(=O)(=O)CC(=O)O)c2)cc1)Cc1ccc(C(F)(F)F)o1 [22/8]	Kp at 4 h ([2]; time point 4 h): 19; Kp at 12 h ([2]; time point 12 h): 27; blood/plasma exposure ([2]; time point 4 h): 1.3 µM; liver exposure ([2]; time point 4 h): 23 µM; blood/plasma exposure ([2]; time point 12 h): 0.15 µM; liver exposure ([2]; time point 12 h): 4.1 µM
> 7.00	–	–	–	80.2	26.6	3.02	Cc1ccc2ccccc2c1C(=O)N(Cc1ccc(-c2cccc(C(C)(C)C(=O)O)c2)cc1)Cc1ccc(C(F)F)o1 [27/36]	–
> 7.00	–	–	–	43.3	30	1.44	Cc1ccc2ccccc2c1C(=O)N(Cc1ccc(-c2cccc(C(C)(O)C(=O)O)c2)cc1)Cc1ccc(C(F)(F)F)o1 (centres unmarked) [27/10]	Kp at 12 h ([2]; time point 12 h): 129; blood/plasma exposure ([2]; time point 12 h): 0.01 µM; liver exposure ([2]; time point 12 h): 1.3 µM; concentration at 4 h ([1]; liver, three oral doses of 3 mg/kg each, read-out: liver exposure, 4 h): 9.93 µM; Kp at 4 h ([1]; three oral doses of 3 mg/kg each): 211; concentration at 4 h ([1]; plasma, three oral doses of 3 mg/kg each, read-out: plasma exposure, 4 h): 0.047 µM
> 7.00	37.5	15.8	2.37	–	–	–	Cc1ccc2ccccc2c1C(=O)N(Cc1ccc(-c2cccc(C(C)(C)C(=O)O)c2)cc1)Cc1ccc(C#N)o1 [27/38]	–
> 7.00	44.6	2.9	15.3	–	–	–	Cc1ccc2ccccc2c1C(=O)N(Cc1ccc(-c2cccc(C(C)(C)C(=O)O)c2)cc1)Cc1ccc(C(F)(F)F)o1 [27/26]	Kp at 4 h ([2]; time point 4 h): 5.5; Kp at 12 h ([2]; time point 12 h): 3.3; Kp at 24 h ([2]; time point 24 h): 3.6; blood/plasma exposure ([2]; time point 4 h): 16 µM; liver exposure ([2]; time point 4 h): 89 µM; blood/plasma exposure ([2]; time point 12 h): 6.4 µM; liver exposure ([2]; time point 12 h): 21 µM; blood/plasma exposure ([2]; time point 24 h): 0.75 µM; liver exposure ([2]; time point 24 h): 2.7 µM; concentration at 4 h [1, 9]: 6.73 µM; Kp at 4 h [1, 10]: 6.5; concentration at 4 h [1, 11]: 1.04 µM
> 7.00	–	–	–	6.8	2.3	2.92	COc1ccc2c(c1CN(Cc1ccc(-c3cccc(C(C)(C)C(=O)O)c3)cc1)Cc1ccc(C(F)(F)F)o1)CCCC2 [27/17]	–
> 7.00	–	–	–	75.3	189	0.399	COc1cc(-c2cccc(C(C)(C)C(=O)O)c2)ccc1CN(Cc1ccc(C(F)(F)F)o1)C(=O)c1c(C)ccc2ccccc12 [27/66]	–
> 7.00	–	–	–	–	–	–	Cc1cc(C)c(C(=O)N(Cc2ccc(-c3cccc(C(C)(C)C(=O)O)c3)cc2)Cc2ccc(C(F)(F)F)o2)c(C)c1 [10/1]	–
> 7.00	–	–	–	320	367	0.871	COc1ccc2c(c1C(=O)N(Cc1ccc(-c3cccc(C(C)(C)C(=O)O)c3)cc1)Cc1ccc(C(F)(F)F)o1)CCCC2 [27/45]	–
